PubChem BioAssay AID1963864 (Molecular Pharmacology Branch, DTP, NCI, 2024)

System: KRAS PDC multicell spheroid viability
Assay: Anticancer human tumor 521955-158-R6-J3-PDC patient-derived pancreatic carcinoma cell line growth inhibition [KRAS2]
Conditions: for viability, T/C: stronger effect = lower value; active means viability on the fitted dose curve at most 10% of control; inactive means the rest
From the text: Multicellular complex tumor spheroid response to RAS pathway inhibitors in combination with a targeted agents in patient-derived cell lines with oncogenic KRAS variants from multiple cancer types
A high-throughput screen of multi-cell type tumor spheroids was designed to identify active combinations of targeted small molecules and KRAS pathway inhibitors. Complex spheroids include a stromal component modeled by human endothelial cells (HUVEC) and fibroblasts modeled by human mesenchymal stem cells (MSCs). The concentration ranges selected for each drug and investigational agent were based upon clinically achievable concentrations if the clinical Cmax of the agent was known.
Compounds. The drugs and investigational agents: BI-3406 (NSC825286), BAY-293 (NSC824723), batoprotafib (TNO155; NSC825523), sotorasib (AMG 510; NSC818433), MRTX1257 (NSC819558), elimusertib (BAY 1895344; NSC800525), molibresib (GSK525762; NSC774829), temuterkib (LY3214996; NSC803410), venetoclax (NSC766270), alisertib (NSC759677), olaparib (NSC753686), talazoparib (NSC767125), erdafitinib (NSC781556), ipatasertib (NSC767898), cabozantinib (NSC761068), nintedanib (NSC756659), abemaciclib (NSC768073), docetaxel (NSC628503), trametinib (NSC758246), and sapanisertib (NSC764658) were obtained from the National Cancer Institute (NCI) Developmental Therapeutics Program Chemical Repository. The FDA-approved anticancer drug set is available from the Developmental Therapeutics Program. […] The stock solutions were prepared in dimethyl sulfoxide (DMSO, Sigma-Aldrich, St. Louis, MO, cat. D2650) at 800-fold the tested concentration and stored at -70 degrees C prior to their use. All drugs and investigational agents were tested over a range starting from a high concentration at or near the clinical Cmax and decreasing in half-log increments. If the clinical Cmax for an agent had not been determined, the highest concentration tested was 10 microM.
Cell Culture. All cells were maintained in an incubator at 37 degrees C and 5% CO2 with 95% humidity. The PDC lines were cultured according to standard operating procedures established by the NCI PDMR (https://pdmr.cancer.gov/sops/default.htm). Briefly, all PDCs were thawed and cultured in Matrigel-coated flasks prepared with a working solution of 1X Ham's F-12 nutrient mix, without supplementation (Invitrogen, Waltham, MA, cat. 11765054), 100 U/mL penicillin-streptomycin (Invitrogen, cat. 15140122), and 2.5% Matrigel (Corning Inc., Corning, NY, cat. 354248) for the first three passages. All PDCs were cultured in complete DMEM/F-12 media containing advanced DMEM/F-12 (Invitrogen, cat. 12634028), 4.9% defined fetal bovine serum, heat inactivated (HyClone Laboratories Inc., Logan, UT, cat. SH30070.03HI), 389 ng/mL hydrocortisone (Sigma-Aldrich, cat. H4001), 9.7 ng/mL human EGF recombinant protein (Invitrogen, cat. PHG0313), 23.4 microg/mL adenine (Sigma-Aldrich, cat. A2786), 97.3 U/mL penicillin-streptomycin (Invitrogen, cat. 15140122), 1.9 mM L-glutamine (Invitrogen, cat. 25030081), and 9.7 microM Y-27632 dihydrochloride (Tocris Bioscience, Bristol, United Kingdom, cat. 1254). The PDCs were cultured in complete DMEM/F12 media without 9.7 microM Y-27632 dihydrochloride for at least two passages prior to the screen. The established cell line HOP-62 was cultured in RPMI 1640 medium, HEPES (Invitrogen, cat. 22400105) with 10% defined fetal bovine serum (HyClone Laboratories Inc., cat. SH30070.03) and 2 mM L-glutamine (Invitrogen, cat. 25030081). The pooled donor HUVEC were cultured in endothelial cell growth medium 2 (PromoCell, Heidelberg, Germany, cat. C-22011) and the hMSC were cultured in mesenchymal stem cell growth medium 2 (PromoCell, cat. C-28009). For all experiments, HUVEC and hMSC were used at passages </=5, while the malignant cell lines were used at passages </=15. […]

[1] = curve of first compound, second compound 0.1 µM
[2] = curve of first compound, second compound 0.316 µM
[3] = curve of first compound, second compound 1 µM
[4] = curve of first compound, second compound 3.16 µM
[5] = curve of first compound, second compound 10 µM
[6] = second compound 0.1 µM, first compound 0.0316 µM
[7] = second compound 0.1 µM, first compound 0.1 µM
[8] = second compound 0.1 µM, first compound 0.316 µM
[9] = second compound 0.1 µM, first compound 1 µM
[10] = second compound 0.1 µM, first compound 3.16 µM
[11] = second compound 0.316 µM, first compound 0.0316 µM
[12] = second compound 0.316 µM, first compound 0.1 µM
[13] = second compound 0.316 µM, first compound 0.316 µM
[14] = second compound 0.316 µM, first compound 1 µM
[15] = second compound 0.316 µM, first compound 3.16 µM
[16] = second compound 1 µM, first compound 0.0316 µM
[17] = second compound 1 µM, first compound 0.1 µM
[18] = second compound 1 µM, first compound 0.316 µM
[19] = second compound 1 µM, first compound 1 µM
[20] = second compound 1 µM, first compound 3.16 µM
[21] = second compound 3.16 µM, first compound 0.0316 µM
[22] = second compound 3.16 µM, first compound 0.1 µM
[23] = second compound 3.16 µM, first compound 0.316 µM
[24] = second compound 3.16 µM, first compound 1 µM
[25] = second compound 3.16 µM, first compound 3.16 µM
[26] = second compound 10 µM, first compound 0.0316 µM
[27] = second compound 10 µM, first compound 0.1 µM
[28] = second compound 10 µM, first compound 0.316 µM
[29] = second compound 10 µM, first compound 1 µM
[30] = second compound 10 µM, first compound 3.16 µM
[31] = second compound 0.1 µM, first compound 10 µM
[32] = second compound 0.316 µM, first compound 10 µM
[33] = second compound 1 µM, first compound 10 µM
[34] = second compound 3.16 µM, first compound 10 µM
[35] = second compound 10 µM, first compound 10 µM
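Further: drug exposure lasted seven days.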
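Wherever viability, T/C is given: 100% = DMSO vehicle wells and lower means fewer viable cells.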

CC(=O)OC12COC1CC(O)C1(C)C(=O)C(O)C3=C(C)C(OC(=O)C(O)C(NC(=O)OC(C)(C)C)c4ccccc4)CC(O)(C(OC(=O)c4ccccc4)C21)C3(C)C (stereo unspecified) + CNCc1ccccc1-c1csc(C(C)Nc2nc(C)nc3cc(OC)c(OC)cc23)c1
active: viability, T/C (second compound 10 µM, first compound 0.01 µM) 1.35% | viability, T/C [26] 0.32% | viability, T/C [27] 0.53% | viability, T/C [28] 0.88% | viability, T/C [29] 0.31% | viability, T/C [30] 0.89%
> 3.16 µM: IC50 [1] | IC50 [2] | IC50 [3]
< 0.01 µM: IC50 [4] | IC50 [5]
inactive: viability, T/C (second compound 0.1 µM, first compound 0.01 µM) 68.7% | viability, T/C [6] 67.6% | viability, T/C [7] 72.9% | viability, T/C [8] 82.2% | viability, T/C [9] 85.6% | viability, T/C [10] 96.1% | viability, T/C (second compound 0.316 µM, first compound 0.01 µM) 70.4% | viability, T/C [11] 64.7% | viability, T/C [12] 69.9% | viability, T/C [13] 60.6% | viability, T/C [14] 92% | viability, T/C [15] 93.7% | viability, T/C (second compound 1 µM, first compound 0.01 µM) 75.3% | viability, T/C [16] 70.6% | viability, T/C [17] 73.8% | viability, T/C [18] 83.6% | viability, T/C [19] 94.8% | viability, T/C [20] 98.1% | viability, T/C (second compound 3.16 µM, first compound 0.01 µM) 0.42% | viability, T/C [21] 72.7% | viability, T/C [22] 0.72% | viability, T/C [23] 1.02% | viability, T/C [24] 3.04% | viability, T/C [25] 130%

COc1cc(Nc2ncc3c(n2)-c2ccc(Cl)cc2C(c2c(F)cccc2OC)=NC3)ccc1C(=O)O + COc1cc2nc(C)nc(NC(C)c3cc(N)cc(C(F)(F)F)c3)c2cc1OC1CCOC1
< 0.0316 µM: IC50 [5]
inactive: viability, T/C [6] 102% | viability, T/C [7] 88.3% | viability, T/C [8] 89% | viability, T/C [9] 88.9% | viability, T/C [10] 97.1% | viability, T/C [31] 90.4% | viability, T/C [11] 93.4% | viability, T/C [12] 86.3% | viability, T/C [13] 87.4% | viability, T/C [14] 99.2% | viability, T/C [15] 96.8% | viability, T/C [32] 88.6% | viability, T/C [16] 80.7% | viability, T/C [17] 84.4% | viability, T/C [18] 87.7% | viability, T/C [19] 89.3% | viability, T/C [20] 95.3% | viability, T/C [33] 83.4% | viability, T/C [21] 76% | viability, T/C [22] 72.5% | viability, T/C [23] 82.1% | viability, T/C [24] 78.5% | viability, T/C [25] 80.6% | viability, T/C [34] 71.2% | viability, T/C [26] 68.9% | viability, T/C [27] 23.1% | viability, T/C [28] 30% | viability, T/C [29] 31.2% | viability, T/C [30] 56.8% | viability, T/C [35] 23%
> 10 µM: IC50 [1] | IC50 [2] | IC50 [3] | IC50 [4]

CC(C)NCC(C(=O)N1CCN(c2ncnc3c2C(C)CC3O)CC1)c1ccc(Cl)cc1 (stereo unspecified) + C=CC(=O)N1CCN(c2nc(OCC3CCCN3C)nc3c2CCN(c2cccc4cccc(C)c24)C3)CC1CC#N
> 10 µM: IC50 (curve of first compound, second compound 0.0316 µM) | IC50 [1] | IC50 [2] | IC50 [3]
inactive: viability, T/C (second compound 0.0316 µM, first compound 0.0316 µM) 80.4% | viability, T/C (second compound 0.0316 µM, first compound 0.1 µM) 86.4% | viability, T/C (second compound 0.0316 µM, first compound 0.316 µM) 84.4% | viability, T/C (second compound 0.0316 µM, first compound 1 µM) 75.9% | viability, T/C (second compound 0.0316 µM, first compound 3.16 µM) 76.3% | viability, T/C (second compound 0.0316 µM, first compound 10 µM) 65% | viability, T/C [6] 76.8% | viability, T/C [7] 87.5% | viability, T/C [8] 74.4% | viability, T/C [9] 66.2% | viability, T/C [10] 74.3% | viability, T/C [31] 57.4% | viability, T/C [11] 79.1% | viability, T/C [12] 74.2% | viability, T/C [13] 74.3% | viability, T/C [14] 66.7% | viability, T/C [15] 74.3% | viability, T/C [32] 65.1% | viability, T/C [16] 63.3% | viability, T/C [17] 59% | viability, T/C [18] 68.5% | viability, T/C [19] 58.9% | viability, T/C [20] 58.3% | viability, T/C [33] 57.4% | viability, T/C [21] 43.9% | viability, T/C [22] 38% | viability, T/C [23] 35.2% | viability, T/C [24] 29.1% | viability, T/C [25] 25.1% | viability, T/C [34] 15.8%
< 0.0316 µM: IC50 [4]

COc1cc(Nc2ncc3c(n2)-c2ccc(Cl)cc2C(c2c(F)cccc2OC)=NC3)ccc1C(=O)O + CNCc1ccccc1-c1csc(C(C)Nc2nc(C)nc3cc(OC)c(OC)cc23)c1
> 10 µM: IC50 [1] | IC50 [2] | IC50 [3]
active: viability, T/C [21] 1.45% | viability, T/C [22] 0.8% | viability, T/C [23] 0.53% | viability, T/C [24] 1.47% | viability, T/C [25] 2.38% | viability, T/C [34] 2.86% | viability, T/C [26] 0.82% | viability, T/C [27] 1.21% | viability, T/C [28] 0.68% | viability, T/C [29] 0.35% | viability, T/C [30] 0.3% | viability, T/C [35] 0.59%
< 0.0316 µM: IC50 [4] | IC50 [5]
inactive: viability, T/C [6] 95.5% | viability, T/C [7] 89.9% | viability, T/C [8] 94.6% | viability, T/C [9] 101% | viability, T/C [10] 113% | viability, T/C [31] 89.4% | viability, T/C [11] 104% | viability, T/C [12] 84.6% | viability, T/C [13] 90.9% | viability, T/C [14] 88.7% | viability, T/C [15] 90.7% | viability, T/C [32] 104% | viability, T/C [16] 93.6% | viability, T/C [17] 73.3% | viability, T/C [18] 86.7% | viability, T/C [19] 78.2% | viability, T/C [20] 87.3% | viability, T/C [33] 88.6%

CC1OCC2(CCN(c3cnc(Sc4ccnc(N)c4Cl)c(N)n3)CC2)C1N (stereo unspecified)
inactive: viability, T/C (compound 0.0316 µM) 97.6% [middle of 4 runs] | viability, T/C (compound 0.316 µM) 86.6% [middle of 19 runs]
> 10 µM: IC50 (compound alone, run of 08/19/2021) | IC50 (compound alone, run of 08/26/2021) | IC50 (compound alone, run of 09/02/2021) | IC50 (curve of compound)
